From PubChem BioAssay (NCI)
Converted amounts (≈) assume the structure as drawn. “And” between values parts separate entries of the source, which are not always exact repeats. Equal entries are not always repeated.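 Test compounds were applied to cells in 96-well plates for 48 hours at 5 doses. GI50: concentration for 50% inhibition of growth. TGI is the concentration that stops growth completely.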

How the values were obtained:
Test in all cases: NCI anticancer screen, dose series, 48 h
[1] = tested on: SNB-75 CNS
[2] = tested on: SF-268 CNS
[3] = tested on: A498 renal
[4] = tested on: DU-145 prostate
[5] = tested on: K-562 leukemia
[6] = tested on: EKVX NSCLC
[7] = tested on: RPMI-8226 leukemia
[8] = tested on: NCI-H23 lung
[9] = tested on: RXF 393 renal
[10] = tested on: CAKI-1 renal
[11] = tested on: COLO 205 colon
[12] = tested on: SK-MEL-28 melanoma
[13] = tested on: UACC-62 melanoma
[14] = tested on: MCF7 breast
[15] = tested on: HCT-116 colon
[16] = tested on: HCC-2998 colon
[17] = tested on: OVCAR-4 ovarian
[18] = tested on: UACC-257 melanoma
[19] = tested on: KM12 colon
[20] = tested on: 786-0 renal
[21] = tested on: SK-MEL-2 melanoma
[22] = tested on: SR leukemia
[23] = tested on: MDA-N
[24] = tested on: SK-MEL-5 melanoma
[25] = tested on: BT-549 breast
[26] = tested on: MDA-MB-435
[27] = tested on: T-47D breast
[28] = tested on: TK-10 renal
[29] = tested on: CCRF-CEM leukemia
[30] = tested on: OVCAR-3 ovarian
[31] = tested on: MDA-MB-231 breast
[32] = tested on: NCI-H460 lung
[33] = tested on: IGROV1 ovarian
[34] = tested on: OVCAR-5 ovarian
[35] = tested on: SW-620 colon
[36] = tested on: HOP-92 NSCLC
[37] = tested on: M14 melanoma
[38] = tested on: SN12C renal
[39] = tested on: MALME-3M melanoma
[40] = tested on: A549 NSCLC
[41] = tested on: LOX IMVI melanoma
[42] = tested on: NCI-H522 lung
[43] = tested on: HL-60(TB) leukemia
[44] = tested on: SNB-19 CNS
[45] = tested on: SF-295 CNS
[46] = tested on: PC-3 prostate
[47] = tested on: ACHN renal
[48] = tested on: MOLT-4 leukemia
[49] = tested on: HCT-15 colon
[50] = tested on: SF-539 CNS
[51] = tested on: NCI-H226 lung
[52] = tested on: UO-31 renal
[53] = tested on: NCI/ADR-RES ovarian
[54] = tested on: SK-OV-3 ovarian
[55] = tested on: HOP-62 NSCLC
[56] = tested on: U251 CNS
[57] = tested on: HT29 colon
[58] = tested on: OVCAR-8 ovarian

SMILES: COc1cc2c(c(OC)c1OC)-c1ccc(SC)cc1C(O)CC2 (configuration not stated)
- GI50 [1]: 43.5 µg/mL (≈ 126 µM)
- TGI [1]: 34.7 µM
- TGI [2]: 11.6 µM
- TGI [3]: > 100 µM and 0.0742 µg/mL
- TGI [4]: > 100 µM
- TGI [5]: < 0.01 µM
- TGI [6]: > 100 µM
- TGI [7]: > 100 µM and 45.9 µg/mL
- TGI [8]: > 100 µM
- GI50 [9]: 16.2 µg/mL (≈ 46.7 µM)
- TGI [10]: 15.7 µM
- TGI [11]: 0.179 µM
- TGI [12]: > 100 µM
- TGI [13]: 20.4 µM
- TGI [14]: > 100 µM and 36.1 µg/mL
- TGI [15]: > 100 µM
- TGI [16]: 18.3 µM
- TGI [17]: > 100 µM
- TGI [18]: 32.8 µg/mL
- TGI [19]: < 0.01 µM
- TGI [20]: > 100 µM
- GI50 [21]: 27.4 µg/mL (≈ 79.2 µM)
- TGI [21]: > 100 µM
- TGI [22]: 34.7 µg/mL
- TGI [23]: 0.461 µM
- TGI [24]: 1.11 µM and 15.1 µg/mL
- TGI [25]: 41 µg/mL
- TGI [26]: 17 µg/mL
- TGI [27]: > 100 µM
- GI50 [28]: 14.2 µg/mL (≈ 41 µM)
- TGI [28]: > 100 µM
- TGI [29]: > 100 µM
- TGI [30]: > 100 µM
- TGI [31]: > 100 µM
- TGI [32]: 19.5 µM
- TGI [33]: > 100 µM
- GI50 [34]: 0.249 µg/mL (≈ 0.719 µM)
- TGI [34]: > 100 µM
- TGI [35]: > 100 µM
- TGI [36]: > 100 µM
- TGI [37]: > 100 µM and 34.9 µg/mL
- TGI [38]: 23.6 µM
- TGI [39]: > 100 µM
- TGI [40]: 34.6 µM
- TGI [41]: 74.1 µM
- TGI [42]: 235 nM and 33.7 µg/mL
- TGI [43]: < 0.01 µM
- TGI [44]: > 100 µM
- TGI [45]: 83.7 µM
- TGI [46]: > 100 µM and 63.9 µg/mL
- TGI [47]: > 100 µM and 97.9 µg/mL

SMILES: O=C(NNC(=O)c1csc(NC(=S)NC2CCCCC2)n1)c1ccccc1
- TGI [1]: > 100 µM
- TGI [2]: > 100 µM
- TGI [3]: 76.2 µM
- TGI [48]: 44.9 µM
- TGI [4]: 51.3 µM
- TGI [49]: 13 µM
- TGI [6]: 28.4 µM
- TGI [7]: 69.9 µM
- TGI [8]: 40.6 µM
- TGI [50]: 31.6 µM
- TGI [10]: 39.5 µM
- TGI [11]: 20.1 µM
- TGI [51]: 49.5 µM
- TGI [13]: 23.9 µM
- TGI [14]: > 100 µM
- TGI [52]: 28.3 µM
- TGI [15]: 15.9 µM
- TGI [16]: 32.2 µM
- TGI [17]: > 100 µM
- TGI [18]: 27.8 µM
- TGI [19]: 28.8 µM
- TGI [20]: 31 µM
- TGI [21]: 45 µM
- TGI [22]: > 100 µM
- TGI [53]: 50.8 µM
- TGI [54]: 34.2 µM
- TGI [55]: 32.5 µM
- TGI [23]: 31.1 µM
- TGI [24]: 19.7 µM
- TGI [56]: 20.4 µM
- TGI [25]: 46.5 µM
- TGI [57]: 21.3 µM
- TGI [26]: 33.1 µM
- TGI [58]: 59.2 µM
- TGI [27]: 17.3 µM
- TGI [28]: 85.6 µM
- TGI [29]: 68.6 µM
- TGI [30]: 16.4 µM
- TGI [31]: 30.8 µM
- TGI [33]: 17.7 µM
- TGI [34]: 76.3 µM
- TGI [35]: 29.5 µM
- TGI [37]: 35.4 µM
- TGI [38]: 22.5 µM
- TGI [39]: 43.2 µM
- TGI [40]: 54.1 µM
- TGI [41]: 22 µM
- TGI [42]: 28.4 µM
- TGI [45]: 51.9 µM
- TGI [46]: 48.9 µM
- TGI [47]: 43.9 µM
